These compounds were tested against T1, P2X7 receptor (UniProt Q99572) (assay: pKi of Table 1 (assay not stated)).
T1 sequence (Q99572 1-595): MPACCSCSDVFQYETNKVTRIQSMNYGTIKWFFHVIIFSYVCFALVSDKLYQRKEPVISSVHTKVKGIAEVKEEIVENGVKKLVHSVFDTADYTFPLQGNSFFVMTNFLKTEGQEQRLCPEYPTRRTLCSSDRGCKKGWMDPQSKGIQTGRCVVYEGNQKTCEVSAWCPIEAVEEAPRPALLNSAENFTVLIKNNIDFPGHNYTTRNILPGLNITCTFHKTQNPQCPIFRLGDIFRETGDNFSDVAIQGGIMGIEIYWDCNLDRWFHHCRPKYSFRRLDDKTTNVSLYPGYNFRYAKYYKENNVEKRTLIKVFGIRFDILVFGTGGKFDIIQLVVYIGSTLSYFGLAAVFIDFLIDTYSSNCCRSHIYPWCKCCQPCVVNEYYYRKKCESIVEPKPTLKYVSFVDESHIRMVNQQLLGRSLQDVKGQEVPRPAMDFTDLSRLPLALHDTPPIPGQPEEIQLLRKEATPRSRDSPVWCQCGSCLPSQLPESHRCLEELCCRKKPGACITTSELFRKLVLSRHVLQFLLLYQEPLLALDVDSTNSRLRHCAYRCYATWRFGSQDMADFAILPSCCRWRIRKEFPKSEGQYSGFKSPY
Assay type: cell-based
Experimental: Intracellular Calcium Flux (FLIPR) Assay
Stock solutions of compounds were prepared from powders as a 10 mM DMSO stock solution. These solutions were stored at RT during the two week period of these experiments to prevent freeze-thaw of the DMSO stocks. The DMSO stocks were added to the appropriate assay buffer at a concentration of 10 μM, and then diluted serially to the final concentrations that were tested. […] The aqueous solutions of compounds as well as ATP (Sigma A7699) and BzATP (Sigma B6396) were prepared fresh for each day of experiment.
1321N1 cells stably expressing the full length human P2X7 gene (1321N1-hP2X7) and HEK293 cells stably expressing the full length rat P2X7 gene (HEK293-rP2X7) were obtained from the Roche Cell Culture Facility. 1321N1-hP2X7 cells were grown in Dulbecco's Modified Eagle's Medium (DMEM) high glucose supplemented with 10% FBS and 250 μg/mL G418. HEK293-rP2X7 cells were grown in DMEM/F-12 supplemented with 10% FBS, 1 mM CaCl2, 2 mM MgCl2, 2 mM L-Glutamine and 500 μg/ml G418. Cells were split such that they never became>70% confluent.
On the day prior to the experiment, 1321N1-hP2X7 or HEK293-rP2X7 cells were released into suspension with calcium-free PBS+Versene and washed by centrifugation with calcium-free PBS to remove the Versene. Cells were resuspended in growth medium at a density of 2.5×10^5 cells/mL and seeded into black walled, clear bottom 96 well plates (50,000 cells/well) approximately 18 hr prior to intracellular calcium flux experiments.
On the day of the experiment, plates were washed with FLIPR buffer (calcium- and magnesium-free Hank's Balanced Salt Solution (HBSS) supplemented with 10 mM Hepes, 2.5 mM probenecid and 2 mM calcium chloride) using a BIO-TEK 96 channel plate washer and incubated with […] fluo-3 dye at 37° C. for one hr. The dye was then removed by plate washing and the cells were allowed to equilibrate for 20 min at room temperature with antagonist or vehicle (FLIPR buffer). Agonist (100 μM BzATP final concentration for hP2X7; 5 μM BzATP final concentration or rP2X7) was added online with the FLIPR and fluorescence measurements made at 1 sec intervals for 60 sec followed by 3 sec intervals for a further 4 min (5 min total). A final addition of 5 μM ionomycin was made and the maximal BzATP-evoked fluorescence normalized to the maximal ionomycin-evoked fluorescence.

Point of comparison: `Cc1cc2ccn(CCO)c2cc1NC(=O)C1=CNC(=O)C[C@H]1c1ccc(F)cc1` [Compound 9, (S)-4-(4-Fluoro-phenyl)-6-oxo-1,4,5,6-tetrahydro-pyridine-3-carboxylic acid [1-(2-hydroxy-ethyl)-5-methyl-1H-indol-6-yl]-amide], pKi 7.71. Against it:
- O=C1CC(c2cccc(F)c2)C(C(=O)Nc2cccc3[nH]ccc23)=CN1 (centres unmarked) [Compound 1, 4-(3-Fluoro-phenyl)-6-oxo-1,4,5,6-tetrahydro-pyridine-3-carboxylic acid (1H-indol-4-yl)-amide] — lower, 5.86
- O=C1CC(c2cccc(F)c2)C(C(=O)Nc2ccc3cc[nH]c3c2)=CN1 (centres unmarked) [Compound 2, 4-(3-Fluoro-phenyl)-6-oxo-1,4,5,6-tetrahydro-pyridine-3-carboxylic acid (1H-indol-6-yl)-amide] — lower, 5.24
- O=C1C[C@@H](c2cccc(F)c2)C(C(=O)Nc2ccc3ncccc3c2Br)=CN1 [Compound 4, (S)-4-(3-Fluoro-phenyl)-6-oxo-1,4,5,6-tetrahydro-pyridine-3-carboxylic acid (5-bromo-quinolin-6-yl)-amide] — lower, 6.953
- O=C1C[C@@H](c2ccc(F)cc2)C(C(=O)Nc2cccc3ncccc23)=CN1 [Compound 5, (S)-4-(4-Fluoro-phenyl)-6-oxo-1,4,5,6-tetrahydro-pyridine-3-carboxylic acid quinolin-5-ylamide] — lower, 5.345
- O=C1C[C@@H](c2ccc(F)cc2)C(C(=O)Nc2ccc3ncccc3c2Br)=CN1 [Compound 6, (S)-4-(4-Fluoro-phenyl)-6-oxo-1,4,5,6-tetrahydro-pyridine-3-carboxylic acid (5-bromo-quinolin-6-yl)-amide] — lower, 7.135
- CCc1cc2ncccc2cc1NC(=O)C1=CNC(=O)C[C@H]1c1ccc(F)cc1 [Compound 7, (S)-4-(4-Fluoro-phenyl)-6-oxo-1,4,5,6-tetrahydro-pyridine-3-carboxylic acid (7-ethyl-quinolin-6-yl)-amide] — lower, 6.673
- CCc1c(NC(=O)C2=CNC(=O)C[C@H]2c2ccc(F)cc2)ccc2ncccc12 [Compound 8, (S)-4-(4-Fluoro-phenyl)-6-oxo-1,4,5,6-tetrahydro-pyridine-3-carboxylic acid (5-ethyl-quinolin-6-yl)-amide] — within 0.2 log units, 7.69
- Cc1c(NC(=O)C2=CNC(=O)C[C@H]2c2cccc(F)c2)ccc2ncccc12 [Compound 10, (S)-4-(3-Fluoro-phenyl)-6-oxo-1,4,5,6-tetrahydro-pyridine-3-carboxylic acid (5-methyl-quinolin-6-yl)-amide] — lower, 6.645
- O=C1C[C@@H](c2cccc(F)c2)C(C(=O)Nc2cc3c(cc2Br)CCC(=O)N3)=CN1 [Compound 11, (S)-4-(3-Fluoro-phenyl)-6-oxo-1,4,5,6-tetrahydro-pyridine-3-carboxylic acid (6-bromo-2-oxo-1,2,3,4-tetrahydro-quinolin-7-yl)-amide] — lower, 5.415
- Cc1ccc2ncccc2c1NC(=O)C1=CNC(=O)C[C@H]1c1cccc(F)c1 [Compound 12, (S)-4-(3-Fluoro-phenyl)-6-oxo-1,4,5,6-tetrahydro-pyridine-3-carboxylic acid (6-methyl-quinolin-5-yl)-amide] — within 0.2 log units, 7.695
- CN1C(=O)CCc2cc(Br)c(NC(=O)C3=CNC(=O)C[C@H]3c3ccc(F)cc3)cc21 [Compound 13, (S)-4-(4-Fluoro-phenyl)-6-oxo-1,4,5,6-tetrahydro-pyridine-3-carboxylic acid (6-bromo-1-methyl-2-oxo-1,2,3,4-tetrahydro-quinolin-7-yl)-amide] — lower, 6.9
- O=C1C[C@@H](c2ccc(F)cc2)C(C(=O)Nc2cccc3cnccc23)=CN1 [Compound 14, (S)-4-(4-Fluoro-phenyl)-6-oxo-1,4,5,6-tetrahydro-pyridine-3-carboxylic acid isoquinolin-5-ylamide] — lower, 6.425
- Cc1ccc2c(NC(=O)C3=CNC(=O)C[C@H]3c3ccc(F)cc3)cccc2n1 [Compound 15, (S)-4-(4-Fluoro-phenyl)-6-oxo-1,4,5,6-tetrahydro-pyridine-3-carboxylic acid (2-methyl-quinolin-5-yl)-amide] — lower, 7.46
